Experiment [1] addresses T1, histamine H3 receptor (Homo sapiens, UniProt Q9Y5N1).
T1 construct: expressed in transfected cells; host or cells: CHO K1 cells with pSwitch/pGeneH3 (GeneSwitch, mifepristone-induced), clone 3H3; membrane preparation
The experiment can be described thus: Histamine H3 functional antagonist assay (GTPγS, membranes). Format: biochemical. To be noted: CHO K1 membranes, [35S]-GTPγS, histamine at EC80; read-out: average pKi (pKb) at H3 (converted). The protocol:
The histamine H3 cDNA is isolated from its holding vector, pcDNA3.1 TOPO (InVitrogen), by restriction digestion of plasmid DNA with the enzymes BamH1 and Not-1 and is ligated into the inducible expression vector pGene (InVitrogen) digested with the same enzymes. The GeneSwitchTM system (a system where in transgene expression is switched off in the absence of an inducer and switched on in the presence of an inducer) is performed as described in U.S. Pat. Nos. 5,364,791; 5,874,534; and 5,935,934. Ligated DNA is transformed into competent DH5α E. coli host bacterial cells and is plated onto Luria Broth (LB) agar containing ZeocinTM (an antibiotic which allows the selection of cells expressing the sh ble gene which is present on pGene and pSwitch) at 50 μgml^-1. Colonies containing the re-ligated plasmid are identified by restriction analysis. DNA for transfection into mammalian cells is prepared from 250 ml cultures of the host bacterium containing the […]3 plasmid and is isolated using a DNA preparation kit (Qiagen Midi-Prep) as per manufacturers guidelines (Qiagen). CHO K1 cells previously transfected with the pSwitch regulatory plasmid (InVitrogen) are seeded at 2×10^6 cells per T75 flask in Complete Medium, containing Hams F12 (GIBCOBRL, Life Technologies) medium supplemented with 10% v/v dialysed foetal bovine serum, L-glutamine, and hygromycin (100 μgml^-1), 24 h prior to use. Plasmid DNA is transfected into the cells using Lipofectamine plus according to the manufacturer's guidelines (InVitrogen). 48 h post transfection, cells are placed into complete medium supplemented with 500 μgml^-1 ZeocinTM. 10-14 days post selection, 10 nM Mifepristone (InVitrogen) is added to the culture medium to induce the expression of the receptor. 18 h post induction, cells are detached from the flask using ethylenediamine tetra-acetic acid (EDTA; 1:5000; InVitrogen), following several washes with PBS, pH 7.4 and are resuspended in Sorting Medium containing Minimum Essential Medium (MEM), without phenol red, and are supplemented with Earles salts and 3% Foetal Clone II (Hyclone). Approximately 1×10^7 cells are examined for receptor expression by staining with a rabbit polyclonal antibody, 4a, raised against the N-terminal domain of the histamine H3 receptor, are incubated on ice for 60 min, followed by two washes in sorting medium. Receptor bound antibody is detected by incubation of the cells for 60 min on ice with a goat anti rabbit antibody, conjugated with Alexa 488 fluorescence marker (Molecular Probes). Following two further washes with Sorting Medium, cells are filtered through a 50 μm FilconTM (BD Biosciences) and then are analysed on a FACS Vantage SE Flow Cytometer fitted with an Automatic Cell Deposition Unit. Control cells are non-induced cells treated in an analogous manner. Positively stained cells are sorted as single cells into 96-well plates, containing Complete Medium containing 500 μgml^-1 ZeocinTM and are allowed to expand before reanalysis for receptor expression via antibody and ligand binding studies. One clone, 3H3, is selected for membrane preparation. All steps of the protocol are carried out at 4° C. and with pre-cooled reagents. The cell pellet is resuspended in 10 volumes of homogenisation buffer (50 mM N-2-hydroxyethylpiperazine-N'-2-ethanesulfonic acid (HEPES), 1 mM ethylenediamine tetra-acetic acid (EDTA), pH 7.4 with KOH, supplemented with 10^-6 M leupeptin (acetyl-leucyl-leucyl-arginal; Sigma L2884), 25 μgml^-1 bacitracin (Sigma B0125), 1 mM phenylmethylsulfonyl fluoride (PMSF) and 2×10^-6 M pepstain A (Sigma)). The cells are then homogenised by 2×15 sec bursts in a 1 L glass Waring blender, followed by centrifugation at 500 g for 20 min. The supernatant is then spun at 48,000 g for 30 min. The pellet is resuspended in homogenisation buffer (4× the volume of the original cell pellet) by vortexing for 5 sec, followed by homogenisation in a Dounce homogeniser (10-15 strokes). […]

The target in experiment [2] is T2, human H1 receptor (Homo sapiens, UniProt P35367).
T2 construct: expressed in transfected cells
T2 sequence (P35367 whole entry): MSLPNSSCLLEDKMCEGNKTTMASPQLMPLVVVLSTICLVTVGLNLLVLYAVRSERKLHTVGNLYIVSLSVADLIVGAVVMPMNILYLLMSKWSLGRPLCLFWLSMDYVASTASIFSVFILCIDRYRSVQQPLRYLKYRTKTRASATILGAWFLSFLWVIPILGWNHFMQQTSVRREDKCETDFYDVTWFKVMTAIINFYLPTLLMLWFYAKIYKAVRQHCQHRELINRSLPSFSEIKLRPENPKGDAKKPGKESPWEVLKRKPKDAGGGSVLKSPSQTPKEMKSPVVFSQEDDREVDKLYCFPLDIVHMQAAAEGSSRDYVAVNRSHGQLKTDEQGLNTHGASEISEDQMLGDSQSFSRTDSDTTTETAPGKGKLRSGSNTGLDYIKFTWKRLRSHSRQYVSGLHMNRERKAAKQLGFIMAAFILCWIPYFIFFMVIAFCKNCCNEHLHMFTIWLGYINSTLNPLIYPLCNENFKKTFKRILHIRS
The experiment can be described thus: Histamine H1 functional antagonist assay: determination of functional pKi values (FLIPR). Format: cell-based. The conditions noted are these: CHO cells expressing human H1 receptor, histamine at EC80, read-out: average pKi (pKb) at H1 (converted). As to the method:
The human H1 receptor is cloned using known procedures described in the literature [Biochem. Biophys. Res. Commun., 201(2):894 (1994)]. Chinese hamster ovary (CHO) cells stably expressing the human H1 receptor are generated according to known procedures described in the literature [Br. J. Pharmacol., 117(6):1071 (1996)]. The histamine H1 cell line is seeded into non-coated black-walled clear bottom 384-well tissue culture plates in alpha minimum essential medium (Gibco/Invitrogen, cat no. 22561-021), supplemented with 10′)/0 dialysed foetal calf serum (Gibco/Invitrogen cat no. 12480-021) and 2 mM L-glutamine (Gibco/Invitrogen cat no 25030-024) and is maintained overnight at 5% CO2, 37° C. Excess medium is removed from each well to leave 10 μl. 30 μl loading dye (250 μM Brilliant Black, 2 μM Fluo-4 diluted in Tyrodes buffer+probenecid (145 mM NaCl, 2.5 mM KCl, 10 mM HEPES, 10 mM D-glucose, 1.2 mM MgCl2, 1.5 mM CaCl2, 2.5 mM probenecid, pH adjusted to 7.40 with NaOH 1.0 M)) is added to each well and the plates are incubated for 60 min at 5% CO2, 37° C. 10 μl of test compound, diluted to the required concentration in Tyrodes buffer+probenecid (or 10 μl Tyrodes buffer+probenecid as a control) is added to each well and the plate is incubated for 30 min at 37° C., 5% CO2. The plates are then placed into a FLIPR™(Molecular Devices, UK) to monitor cell fluorescence (λex=488 nm, λEM=540 nm) in the manner described in Sullivan et al., (In: Lambert DG (ed.), Calcium Signaling Protocols, New Jersey: Humana Press, 1999, 125-136) before and after the addition of 10 μl histamine at a concentration that results in the final assay concentration of histamine being EC80. Functional antagonism is indicated by a suppression of histamine induced increase in fluorescence, as measured by the FLIPR™ system (Molecular Devices). By means of concentration effect curves, functional affinities are determined using standard pharmacological mathematical analysis.

T1 sequence (Q9Y5N1 whole entry, species assumed): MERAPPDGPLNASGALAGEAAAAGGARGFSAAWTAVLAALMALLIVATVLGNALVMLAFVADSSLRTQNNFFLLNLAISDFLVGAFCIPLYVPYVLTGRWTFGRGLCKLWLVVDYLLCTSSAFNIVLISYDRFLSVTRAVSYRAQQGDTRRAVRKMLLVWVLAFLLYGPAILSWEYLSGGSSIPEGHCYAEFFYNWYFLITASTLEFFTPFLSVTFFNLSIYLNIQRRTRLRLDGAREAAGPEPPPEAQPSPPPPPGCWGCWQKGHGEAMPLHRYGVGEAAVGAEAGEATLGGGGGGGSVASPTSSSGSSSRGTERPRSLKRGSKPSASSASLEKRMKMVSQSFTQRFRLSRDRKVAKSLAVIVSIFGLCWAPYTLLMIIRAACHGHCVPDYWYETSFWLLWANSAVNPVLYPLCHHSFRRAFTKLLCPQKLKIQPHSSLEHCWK

As for `CCCCc1cc(OC2CCN(CCCCC(=O)NCCCOC)CC2)c2ncccc2c1` [Example 26, 5-{4-[(6-butyl-8-quinolinyl)oxy]-1-piperidinyl}-N-[3-(methyloxy)propyl]pent-anamide], the Ki was above 3160 nM in experiment [1] and below 100 nM in experiment [2].

As to `CCCCc1cc(OC2CCN(CC(=O)NCCCOC)CC2)c2ncccc2c1` [Example 8, 2-{4-[(6-butyl-8-quinolinyl)oxy]-1-piperidinyl}-N-[3-(methyloxy)propyl] acetamide], the Ki in experiment [1] is above 3160 nM; in experiment [2] it was below 100 nM.

For `CCCCc1cc(OC2CCN(C[C@H]3CC[C@H](C(=O)NCCCOC)CC3)CC2)c2ncccc2c1` [Example 47, trans-4-({4-[(6-butyl-8-quinolinyl)oxy]-1-piperidinyl}methyl)-N-[3-(methyloxy)propyl]cyclohexane carboxamide], the figures for the Ki in experiment [1] and in experiment [2] were above 316 nM and below 10 nM, respectively. The like results for `CCCCCCc1cc(OC2CCN(C[C@H]3CC[C@H](C(=O)N4CCCC4)CC3)CC2)c2ncccc2c1` [Example 54, 6-hexyl-8-[(1-{[trans-4-(1-pyrrolidinylcarbonyl)cyclohexyl]methyl}-4-piperidinyl)oxy]quinoline] were, in that order, above 316 nM and below 100 nM. For the compound `CCCCCCc1cc(OC2CCN(C[C@H]3CC[C@H](C(=O)N4CCOCC4)CC3)CC2)c2ncccc2c1` [Example 57, 6-hexyl-8-[(1-{[trans-4-(4-morpholinylcarbonyl)cyclohexyl]methyl}-4-piperidinyl)oxy]quinoline], the Ki is above 316 nM in experiment [1] and below 100 nM in experiment [2].

`CCCCc1cc(OC2CCN(C[C@H]3CC[C@H](C(=O)NCCC)CC3)CC2)c2ncccc2c1` [Example 45, Trans-4-({4-[(6-butyl-8-quinolinyl)oxy]-1-piperidinyl}methyl)-N-propylcyclohexane carboxamide]: the Ki was above 316 nM in experiment [1] and below 10 nM in experiment [2]. For `CCCCc1cc(OC2CCN(CC(=O)NC(C)C)CC2)c2ncccc2c1` [Example 14, 2-{4-[(6-butyl-8-quinolinyl)oxy]-1-piperidinyl}-N-(1-methylethyl)acetamide] the same measures were above 3160 nM and below 100 nM. For `CCCCc1cc(OC2CCN(CCCNC(=O)C(C)(C)C)CC2)c2ncccc2c1` [Example 69, N-(3-{4-[(6-butyl-8-quinolinyl)oxy]-1-piperidinyl}propyl)-2,2-dimethyl propanamide] the same measures were above 316 nM and below 10 nM. For `CCCCCCc1cc(OC2CCN(C[C@H]3CC[C@H](C(=O)Nc4ccc(C)cc4)CC3)CC2)c2ncccc2c1` [Example 48, trans-4-({4-[(6-hexyl-8-quinolinyl)oxy]-1-piperidinyl}methyl)-N-(4-methylphenyl) cyclohexane carboxamide] the same measures were above 316 nM and below 100 nM. In the case of `CCCCc1cc(OC2CCN(CCCCNC(=O)CCCOC)CC2)c2ncccc2c1` [Example 84, N-(4-{4-[(6-butyl-8-quinolinyl)oxy]-1-piperidinyl}butyl)-4-(methyloxy) butanamide], the figures for the Ki in experiment [1] and in experiment [2] were above 316 nM and below 10 nM, respectively.

With `CCCCc1cc(OC2CCN(CCCC(=O)NCC)CC2)c2ncccc2c1` [Example 20, 4-{4-[(6-butyl-8-quinolinyl)oxy]-1-piperidinyl}-N-ethylbutanamide], the Ki was above 3160 nM in experiment [1] and below 10 nM in experiment [2]. The like results for `CCCCc1cc(OC2CCN(CCCCCNC(=O)C3CCCCC3)CC2)c2ncccc2c1` [Example 78, N-(5-{4-[(6-butyl-8-quinolinyl)oxy]-1-piperidinyl}pentyl) cyclohexane carboxamide] were, in that order, above 316 nM and below 10 nM.

For the compound `CCCCCc1cc(OC2CCN(CCCC(=O)N(CC)CC)CC2)c2ncccc2c1` [Example 89, N,N-Diethyl-4-{4-[(6-pentyl-8-quinolinyl)oxy]-1-piperidinyl}butanamide], the Ki was above 316 nM in experiment [1] and below 100 nM in experiment [2]. For `CCCCc1cc(OC2CCN(CCC(=O)NC(C)(C)C)CC2)c2ncccc2c1` [Example 17, 3-{4-[(6-butyl-8-quinolinyl)oxy]-1-piperidinyl}-N-(1,1-dimethylethyl) propanamide] the same measures were above 3160 nM and below 10 nM. The like results for `CCCCc1cc(OC2CCN(CC(=O)NCCC)CC2)c2ncccc2c1` [Example 10, 2-{4-[(6-butyl-8-quinolinyl)oxy]-1-piperidinyl}-N-propylacetamide] were, in that order, above 316 nM and above 1000 nM. For `CCCCc1cc(OC2CCN(CCCCC(=O)N3CCCCC3)CC2)c2ncccc2c1` [Example 31, 6-butyl-8-({1-[5-oxo-5-(1-piperidinyl)pentyl]-4-piperidinyl}oxy) quinoline] the same measures were above 3160 nM and below 10 nM.

Regarding `CCCCc1cc(OC2CCN(CCCNC(=O)CC)CC2)c2ncccc2c1` [Example 86, N-(3-{4-[(6-Butyl-8-quinolinyl)oxy]-1-piperidinyl}propyl)propanamide], the Ki in experiment [1] was above 316 nM; in experiment [2] it was below 10 nM. For `CCCCc1cc(OC2CCN(CCCCNC(C)=O)CC2)c2ncccc2c1` [Example 79, N-(4-{4-[(6-Butyl-8-quinolinyl)oxy]-1-piperidinyl}butyl)acetamide] the same measures were above 316 nM and below 10 nM. The like results for `CCCCc1cc(OC2CCN(CCCNC(=O)CCCOC)CC2)c2ncccc2c1` [Example 83, N-(3-{4-[(6-butyl-8-quinolinyl)oxy]-1-piperidinyl}propyl)-4-(methyloxy) butanamide] were, in that order, above 316 nM and below 100 nM. As for `CCCCc1cc(OC2CCN(CCCCC(=O)NC(C)C)CC2)c2ncccc2c1` [Example 32, 5-{4-[(6-butyl-8-quinolinyl)oxy]-1-piperidinyl}-N-(1-methylethyl) pentanamide], the Ki in experiment [2] is below 10 nM.

Values taken from patent US20100222349A1, “QUINOLINE DERIVATIVES USED TO TREAT INFLAMMATORY AND ALLERGIC DISEASES” (Glaxo Group Limited, priority 2007, published 2010).
